Experiments:
[1] = system: A549 cells (CSC/SP and CTAC/MP compartments); experiment: Doxorubicin content of A549 cells by flow cytometry; assay type: cell-based, human; conditions: doxorubicin 1 μM plus T12 50 μM
Protocol: FIG. 10. T12 enhances doxorubicin accumulation, preferentially in CSC/SP cells. A549 cultures were untreated (control) or treated with doxorubicin (1 μM) and/or T12 (50 μM). A, doxorubicin content was measured by flow cytometry using the PE channel. Represented are fluorescence intensity values. The increased amount of doxorubicin is evidenced by the rightwards displacement of the fluorescence peak. B, CSC/SP and CTAC/MP compartments were identified as in FIG. 9 and the doxorubicin content of cells was determined as in A.
A549 cells were suspended at 10^6 cells/mL in culture medium containing 10 mM Hepes (previously warmed at 37° C.). Hoechst 33342 was added at 5 μg/mL and cells incubated in a 37° C. bath with shaking for 90 min in the dark. Before incubation (and after staining) an aliquot of 1 mL was taken and verapamil (50 μM) and fumitremorgin C (10 μM) added. Cells were centrifuged at 300×g for 5 min at 4° C. and suspended in cold medium with 10 mM Hepes. Cells were kept at 4° C. until analysis. Analysis of Hoechst 33342 efflux was assessed using a Flow Cytometer with incident 350 nm ultraviolet light. The resulting fluorescence was measured at two wavelengths using 424/44 BP and 675 LP filters that allow detection of Hoechst blue and red, respectively. […] Doxorubicin content in either population was estimated with incident 488 nm blue light and 585/40 filter. […]

A549 cells [2] = experiment: T12 LC50 in A549 cells cultured without serum to expand the CSC/SP compartment; assay type: cell-based; conditions: Homo sapiens
Protocol: FIG. 16. GPBP is over-expressed in A549 cells grown in B-ALI media that allows CSC/SP expansion. Bars represent the relative expression of the indicated genes in A549 cells grown with the indicated culture medium during the indicated times. A549 cells grown in DMEM: Ham's F12 medium supplemented with 2 mM L-glutamine and 10% fetal bovine serum (day 0) were used as reference.
Chemoresistance is widely accepted to depend on epigenetic changes occurring at the CSC/SP compartment (Alberts et al. 2007). Accordingly GPBP-mediated doxorubicin resistance is expected to occur on CSC/SP compartment. To test this we cultured A549 cells in the absence of serum using culture conditions known to expand CSC/SP compartment.

A549 cells [3] = experiment: Migration assay in modified Boyden chambers; assay type: cell-based, human; conditions: 16 h
Protocol: FIG. 8. T12 inhibits cancer cell migration. A modified Boyden chamber was used to measure migration as described in Methods and Experimental Design. Doxorubicin was used at 1 μM and T12 at 50 μM.
Migration assays were performed using modified Boyden chambers (Transwell inserts, 6.5 mm diameter; Corning). Inserts containing polycarbonate membranes with 8 μm pores were placed into the lower chambers containing 400 μl media (DMEM:F-12 supplemented with 10% FBS, 1% penicillin-streptomycin and 2 mM glutamine). Serum-starved A549 cells were removed from culture dishes with Hanks' balanced salt solution containing 0.5% trypsin and 0.2% EDTA (Sigma), washed and suspended in media without serum (DMEM:F-12, 1% penicillin-streptomycin and 2 mM glutamine) at 10^6 cells/mL. Two-hundred fifty thousand (250,000) cells in 250 μL media without serum were added to the top of each migration chamber and allowed to migrate to the underside of the porous membrane for 16 h. T12 and doxorubicin were present in the media of both top and bottom compartments throughout the assay. […] The detached cells were labeled with Calcein AM Fluorescent Dye (4 μg/ml) for 90 min at 37° C. and the fluorescence was measured at 494/517 nm (Abs/Em).

[4] = system: CDKN1A (p21) and DDIT3 (CHOP) genes; experiment: qPCR of CDKN1A (p21) and DDIT3 (CHOP) mRNA in A549 cells; assay type: cell-based, human; conditions: doxorubicin 1 μM, T12 50 μM, 24 h
Protocol: FIG. 3. T12 enhances doxorubicin-induced expression of CDKN1A (p21) and DDIT3 (CHOP) genes in A549 cells. Cells were treated with doxorubicin (1 μM) and/or T12 (50 μM) for 24 h. Total RNA was isolated, reverse-transcribed, and CDKN1A (p21) and DDIT3 (CHOP) mRNA levels assessed by qPCR using TaqMan™ commercial probes and primers. Results are expressed as relative quantity (RQ) respect to untreated cells. A representative assay is shown.
Total RNA from cell samples was extracted using Ilustra RNAspin™ Mini (Ge Healthcare) according to the manufacturer's instructions. One μg of total RNA from each sample was converted to cDNA (RT) using the High Capacity cDNA Reverse Transcription Kit (Applied Biosystems). For Real-Time PCR (qPCR), 1.5 μl of cDNA was mixed with TaqMan™ Gene Expression Master Mix and the specific TaqMan™ probes and primers for COL4A3BP/GPBP, DDIT3/CHOP, CDKN1A/p21, PROM1/CD133, NANOG, MMP10 and HPRT1, all from Applied Biosystems. Hypoxanthine-guanine phosphoribosyltransferase (HPRT1) primer was used as endogenous control. qPCR was performed on a StepOnePlus™ Real-Time PCR system (Applied Biosystems) according to manufacturer's recommendations. The relative levels of mRNAs were calculated with the ΔΔCt method using untreated samples as reference (the comparative Ct method).

COc1ccc(-c2ccc(-c3cccc(C)c3)c(C)c2)c(CCC(=O)O)c1 [T12, 3-[4″-methoxy-3,2′-dimethyl-(1,1′;4′,1″)terphenyl-2″-yl] propionic acid]
doxorubicin content of cells versus doxorubicin only [1]: higher doxorubicin content
CC50 (A549 cells [2]; A549, A549 comparison culture (CSC/SP not expanded)): 125 µM
CC50 (A549 cells [2]; A549, A549 cultured in the absence of serum, expanded CSC/SP compartment): 15 µM
cell migration of A549 cells, T12 with additional doxorubicin (A549 cells [3]; T12 50 μM plus doxorubicin 1 μM): virtually arrested
cell migration of A549 cells (A549 cells [3]; T12 50 μM): sharply inhibited
induction of CDKN1A (p21) and DDIT3 (CHOP) expression together with doxorubicin [4]: synergistic

From patent publication US9066938B2, “GPBP-1 inhibition and its therapeutic use” (Fibrostatin S.L., priority 2012, dated 2015)
